Laboratory results from paper PMC11892870 (PLOS One, 2025).
Read-outs that look alike come from different tables or passages of the source.

Legend:
[1] = tested on: scopolamine-induced amnesic mice; assay: Morris water maze test, scopolamine-induced amnesia; assay type: in vivo
[2] = tested on: scopolamine-induced amnesic mice; assay: Novel object recognition test, scopolamine-induced amnesia; assay type: in vivo
male ICR mice = assay: Locomotor activity and spontaneous alternation in Y-maze; assay type: in vivo; settings: donepezil 3 mg/kg p.o., average of 7 mice
Experimental: Scopolamine was dissolved in NSS. Donepezil and crude extract were dissolved in corn oil. Animal doses were calculated according to mice body weight. […].
Sixty male ICR mice in age 6 weeks (34-44 g) were supplied from Northeast Laboratory Animal Center, KKU. Before conducting the experiments, they were acclimatized for a week with a 12h light-dark cycle and had free access to their diet and water. Their body weight was recorded every day. […] Investigators could not be blinded to the mouse groups due to the difference in code colors. However, the investigators who assessed the mouse’s behavior were blinded to the mouse code for providing unbiased data. The parameters related to behavioral changes were assessed including the number of arm entries, the exploration time spent, and the time spent in a preference quadrant.
Locomotor activity was investigated in a black polyvinyl chamber Y maze. The size of the chamber is 40 cm long, 3 cm wide at the bottom and 10 cm wide at the top, and 12 cm high in each arm. Mice were first allowed to acclimate the chamber and freely moved in Y maze for 8 minutes. After acclimatization, the locomotor activity was measured for 1 hour following the treatment administration. The number of arm entries was recorded from the middle of the maze.

[3] = tested on: scopolamine-induced amnesic mice; assay: Modified Y-maze test, scopolamine-induced amnesia; assay type: in vivo
ABTS radical scavenging = settings: read-out: Antioxidant ABTS IC50
Experimental: (§1) The mixtures were kept in the dark for 30 minutes and then the absorbance was measured at 550 nm. In case of ABTS assay, ABTS radical cation (ABTS • + ) was prepared from a mixture of the ABTS stock solution (7 mM) and potassium persulfate (2.45 mM) in water. The mixture was then kept in the dark for 12-16 hours before use. Then, the ABTS • + solution was diluted in ethanol until the absorbance reached 0.70 ± 0.02 at […].
(§2) Trolox was used as a positive control in both assays, while a mixture of ethanol and DPPH or ABTS • + solution served as the negative control. The percentage inhibition of DPPH and ABTS radicals was calculated using the following equation:
(§3) DPPHandABTSinhibition%=A0−A1/A0×100
(§4) A0 is the absorbance of the control and A1 is the absorbance of the sample.

Aβ1-42 = target: T1, Aβ1-42 (Homo sapiens, UniProt P05067); assay: Inhibition of Aβ1-42 aggregation (fibril formation), ThT fluorescence; assay type: biochemical
T1 construct: Aβ1-42 was firstly dissolved in HFIP
From the text: (§5) Then, the solvent was dried in hood using nitrogen, and reconstituted to working solution with 0.5 M phosphate buffer (pH 7.4).

[4] = Cytotoxicity in differentiated SH-SY5Y cells, MTT; assay type: cell-based; settings: human
Experimental: (§6) Neuroblastoma cells (SH-SY5Y) were maintained in humidified atmosphere at 37 °C with 5%CO2 in DMEM/F12 supplement with 10%FBS. Afterward, cells were treated for 6 days and replaced every 3 days with 1%FBS supplementation and 10 μM of retinoic acid. Cells were seeded (100,000 cells per well) in 96-well microplates and cultured for 48 hours before treatment. […] Cell viability was assessed using MTT assay. Absorbance at 570 nm was measured for both treated and untreated samples, with viability expressed as a percentage relative to the control.

DPPH radical scavenging = settings: read-out: Antioxidant DPPH IC50
Experimental: as §1, §2, §3, §4

AChE = AChE (Homo sapiens, UniProt P22303); assay: biochemical
Aβ1-42 fibrils = target: T2, Aβ1-42 fibrils (Homo sapiens, UniProt P05067); assay: biochemical; settings: read-out: Aβ destabilization IC50
T2 construct: Aβ1-42 was firstly dissolved in HFIP
From the text: as §5

BChE = BChE (Homo sapiens, UniProt P06276); assay: biochemical; settings: mean ± SD, n = 3; read-out: BChE inhibition IC50
SH-SY5Y cells = assay: Cytotoxicity in differentiated SH-SY5Y cells, MTT; assay type: cell-based; settings: 100 µM, SH-SY5Y, MTT, average of 5
Experimental: as §6

[5] = long-term memory (24 h delay), donepezil 3 mg/kg p.o. + scopolamine 1 mg/kg i.p.
[6] = short-term memory, donepezil 3 mg/kg p.o. + scopolamine 1 mg/kg i.p.
[7] = read-out: Inhibition of Aβ formation IC50
[8] = differentiated SH-SY5Y neuroblastoma cells, 0.1 µM, SH-SY5Y, MTT, average of 5, read-out: %Cell viability (cytotoxicity)
[9] = differentiated SH-SY5Y neuroblastoma cells, 1 µM, SH-SY5Y, MTT, average of 5, read-out: %Cell viability (cytotoxicity)
[10] = differentiated SH-SY5Y neuroblastoma cells, 10 µM, SH-SY5Y, MTT, average of 5, read-out: %Cell viability (cytotoxicity)
[11] = differentiated SH-SY5Y neuroblastoma cells, 100 µM, SH-SY5Y, MTT, average of 5, read-out: %Cell viability (cytotoxicity)
[12] = mean ± SD, n = 3, read-out: AChE inhibition IC50
[13] = 0.1 µM, SH-SY5Y, MTT, average of 5, read-out: %Cell viability (cytotoxicity)
[14] = 1 µM, SH-SY5Y, MTT, average of 5, read-out: %Cell viability (cytotoxicity)
[15] = 10 µM, SH-SY5Y, MTT, average of 5, read-out: %Cell viability (cytotoxicity)
[16] = 100 µM, SH-SY5Y, MTT, average of 5, read-out: %Cell viability (cytotoxicity)
[17] = long-term memory (24 h delay), scopolamine 1 mg/kg i.p. alone
[18] = short-term memory, scopolamine 1 mg/kg i.p. alone

Chain of BChE (P06276 29-602, species assumed): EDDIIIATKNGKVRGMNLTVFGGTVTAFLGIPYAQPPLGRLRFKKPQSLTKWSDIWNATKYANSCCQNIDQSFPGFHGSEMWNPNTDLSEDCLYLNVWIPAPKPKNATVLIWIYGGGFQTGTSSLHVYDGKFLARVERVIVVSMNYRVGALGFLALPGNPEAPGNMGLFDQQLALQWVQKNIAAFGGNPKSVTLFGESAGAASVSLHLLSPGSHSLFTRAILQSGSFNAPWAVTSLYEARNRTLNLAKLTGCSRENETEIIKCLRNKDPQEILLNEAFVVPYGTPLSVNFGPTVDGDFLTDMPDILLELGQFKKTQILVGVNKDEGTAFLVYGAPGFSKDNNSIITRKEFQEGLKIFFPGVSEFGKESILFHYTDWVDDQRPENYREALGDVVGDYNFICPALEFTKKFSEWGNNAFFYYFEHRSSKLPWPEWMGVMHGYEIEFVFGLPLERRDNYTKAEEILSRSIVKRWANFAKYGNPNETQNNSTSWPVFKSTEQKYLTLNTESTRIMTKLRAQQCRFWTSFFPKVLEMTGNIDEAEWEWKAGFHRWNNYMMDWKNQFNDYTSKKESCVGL
Chain of AChE (P22303 32-614): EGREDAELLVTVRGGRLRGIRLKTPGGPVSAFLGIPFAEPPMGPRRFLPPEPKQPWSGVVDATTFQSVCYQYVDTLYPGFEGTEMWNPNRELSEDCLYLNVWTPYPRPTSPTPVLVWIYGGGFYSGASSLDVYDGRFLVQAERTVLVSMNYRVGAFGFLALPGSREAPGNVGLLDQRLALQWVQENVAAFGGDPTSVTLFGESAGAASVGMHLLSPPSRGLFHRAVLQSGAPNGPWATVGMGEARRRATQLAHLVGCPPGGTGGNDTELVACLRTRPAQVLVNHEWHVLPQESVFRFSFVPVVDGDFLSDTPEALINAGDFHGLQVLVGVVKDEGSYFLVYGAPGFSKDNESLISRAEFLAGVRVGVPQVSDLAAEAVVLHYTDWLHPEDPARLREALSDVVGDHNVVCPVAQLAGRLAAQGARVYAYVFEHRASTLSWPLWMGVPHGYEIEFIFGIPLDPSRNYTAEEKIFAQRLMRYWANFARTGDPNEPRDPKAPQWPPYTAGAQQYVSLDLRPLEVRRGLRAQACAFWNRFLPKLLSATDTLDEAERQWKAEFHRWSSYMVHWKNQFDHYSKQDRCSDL
T1 sequence (P05067 672-713 limits assumed): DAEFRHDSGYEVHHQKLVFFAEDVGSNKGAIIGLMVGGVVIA
T2 sequence (P05067 672-713 limits assumed): as above

**Q.** What does the source list for COc1cc2c(cc1OC)C(=O)C(CC1CCN(Cc3ccccc3)CC1)C2 (stereo not drawn) [Donepezil]?
**A.** Time to find the platform, Escape latency ([1]; acquisition phase Day 1, donepezil 3 mg/kg p.o. + scopolamine 1 mg/kg i.p.): 59.86 s; Time to find the platform, Escape latency ([1]; acquisition phase Day 2, donepezil 3 mg/kg p.o. + scopolamine 1 mg/kg i.p.): 49.00 s; Time to find the platform, Escape latency ([1]; acquisition phase Day 3, donepezil 3 mg/kg p.o. + scopolamine 1 mg/kg i.p.): 37.04 s; Time to find the platform, Escape latency ([1]; acquisition phase Day 4, donepezil 3 mg/kg p.o. + scopolamine 1 mg/kg i.p.): 27.71 s; Time to find the platform, Escape latency ([1]; acquisition phase Day 5, donepezil 3 mg/kg p.o. + scopolamine 1 mg/kg i.p.): 25.57 s; Time spent in the target quadrant ([1]; probe test day 6, donepezil 3 mg/kg p.o. + scopolamine 1 mg/kg i.p.): 18.39 s; Time spent exploring the familiar object [2, 5]: 32.11 s; Time spent exploring the novel object [2, 5]: 56.84 s; Time spent exploring the familiar object [2, 6]: 52.86 s; Time spent exploring the novel object [2, 6]: 64.31 s; Locomotor activity, total number of arm entries (male ICR mice): 23.57; %unfamiliar arm exploration ([3]; long-term memory (24 hours), donepezil 3 mg/kg p.o. + scopolamine 1 mg/kg i.p.): 39.94%; %unfamiliar arm exploration ([3]; short-term memory (30 min), donepezil 3 mg/kg p.o. + scopolamine 1 mg/kg i.p.): 40.79%

**Q.** Which results are given for COc1cc(OC)c2c(=O)cc(-c3ccccc3)oc2c1 [F1, 5,7-dimethoxyflavone]?
**A.** IC50 (ABTS radical scavenging): > 100 µM; IC50 (Aβ1-42; [7]): 105 ± 1.34 µM; viability at 0.1 µM [4]: 104%; viability at 1 µM [4]: 104%; viability at 10 µM [4]: 103%; viability at 100 µM [4]: 103%; IC50 (DPPH radical scavenging): > 100 µM; IC50 (AChE): 181 ± 2.66 µM; IC50 (Aβ1-42 fibrils): 75.9 ± 4.96 µM; IC50 (BChE): 92.19 ± 0.69 µM

**Q.** With COc1cc(OC)c2c(=O)c(OC)c(-c3ccccc3)oc2c1 [F2, 3,5,7-trimethoxyflavone] as the compound, how does the IC50 (ABTS radical scavenging) read?
**A.** Its IC50 is over 100 µM.

**Q.** What about the IC50 (Aβ1-42; [7]) of the same compound?
**A.** The IC50 was 87.1 ± 4.51 µM.

**Q.** And the “%Cell viability (cytotoxicity)” value (SH-SY5Y cells)?
**A.** Its value is “toxic”.

**Q.** And the viability at 0.1 µM [4, 8]?
**A.** The viability at 0.1 µM was 103%.

**Q.** What about the viability at 1 µM [4, 9] of the same compound?
**A.** Its viability at 1 µM is 102%.

**Q.** And the viability at 10 µM [4, 10]?
**A.** The viability at 10 µM was 102%.

**Q.** And the viability at 100 µM [4, 11]?
**A.** The viability at 100 µM was 94%.

**Q.** And the IC50 (DPPH radical scavenging)?
**A.** Its IC50 is over 100 µM.

**Q.** And the IC50 (AChE; [12])?
**A.** Its IC50 is 237.1 ± 2.28 µM.

**Q.** What about the IC50 (Aβ1-42 fibrils) of the same compound?
**A.** The IC50 was 83.9 ± 1.67 µM.

**Q.** And the IC50 (BChE)?
**A.** Its IC50 is 233 ± 6.89 µM.

**Q.** What does the source list for COc1ccc(-c2cc(=O)c3c(OC)cc(OC)cc3o2)cc1 [F3, 5,7,4′-trimethoxyflavone]?
**A.** IC50 (ABTS radical scavenging): > 100 µM; IC50 (Aβ1-42; [7]): 91.4 ± 4.67 µM; viability at 0.1 µM [4, 13]: 101%; viability at 1 µM [4, 14]: 102%; viability at 10 µM [4, 15]: 102%; viability at 100 µM [4, 16]: 95.5%; IC50 (DPPH radical scavenging): > 100 µM; IC50 (AChE): 106 ± 1.14 µM; IC50 (Aβ1-42 fibrils): 39.5 ± 0.61 µM; IC50 (BChE): 152 ± 6.14 µM

**Q.** For COc1cc(O)c2c(=O)c(OC)c(-c3ccccc3)oc2c1 [F4, 5-hydroxy-3,7-dimethoxyflavone], which IC50 (ABTS radical scavenging) is on record?
**A.** Its IC50 is over 100 µM.

**Q.** And the IC50 (Aβ1-42; [7])?
**A.** Its IC50 is 97.1 ± 2.38 µM.

**Q.** And the “%Cell viability (cytotoxicity)” value (SH-SY5Y cells)?
**A.** The value was “toxic”.

**Q.** What about the viability at 0.1 µM [4, 8] of the same compound?
**A.** The viability at 0.1 µM was 102%.

**Q.** What about the viability at 1 µM [4, 9] of the same compound?
**A.** The viability at 1 µM was 103%.

**Q.** What about the viability at 10 µM [4, 10] of the same compound?
**A.** Its viability at 10 µM is 103%.

**Q.** What about the viability at 100 µM [4, 11] of the same compound?
**A.** Its viability at 100 µM is 80.5%.

**Q.** And the IC50 (DPPH radical scavenging)?
**A.** Its IC50 is over 100 µM.

**Q.** What about the IC50 (AChE; [12]) of the same compound?
**A.** Its IC50 is 217.6 ± 1.84 µM.

**Q.** And the IC50 (Aβ1-42 fibrils)?
**A.** The IC50 was 63.9 ± 1.83 µM.

**Q.** What about the IC50 (BChE) of the same compound?
**A.** The IC50 was 33.5 ± 2.97 µM.

**Q.** What does the source list for COc1ccc(-c2oc3cc(OC)cc(OC)c3c(=O)c2OC)cc1 [F5, 3,5,7,4′-tetramethoxyflavone]?
**A.** IC50 (ABTS radical scavenging): > 100 µM; IC50 (Aβ1-42): 134 ± 5.08 µM; viability at 0.1 µM [4, 13]: 99.9%; viability at 1 µM [4, 14]: 99.8%; viability at 10 µM [4, 15]: 98.8%; viability at 100 µM [4, 16]: 102%; IC50 (DPPH radical scavenging): > 100 µM; IC50 (AChE): 209.1 ± 0.82 µM; IC50 (Aβ1-42 fibrils): 51.3 ± 3.13 µM; IC50 (BChE): 164 ± 5.13 µM

**Q.** Which “Time to find the platform, Escape latency” value (“Time to find the platform” for short) ([1]; acquisition phase Day 1, scopolamine 1 mg/kg i.p. alone) does the source give for CN1[C@@H]2C[C@@H](OC(=O)[C@H](CO)c3ccccc3)C[C@H]1[C@@H]1O[C@@H]12 [Scopolamine] here?
**A.** Its value is 58.43 s.

**Q.** And the “Time to find the platform” value ([1]; acquisition phase Day 2, scopolamine 1 mg/kg i.p. alone)?
**A.** Its value is 54.46 s.

**Q.** What about the “Time to find the platform” value ([1]; acquisition phase Day 3, scopolamine 1 mg/kg i.p. alone) of the same compound?
**A.** The value was 46.21 s.

**Q.** What about the “Time to find the platform” value ([1]; acquisition phase Day 4, scopolamine 1 mg/kg i.p. alone) of the same compound?
**A.** The value was 39.64 s.

**Q.** What about the “Time to find the platform” value ([1]; acquisition phase Day 5, scopolamine 1 mg/kg i.p. alone) of the same compound?
**A.** Its value is 35.04 s.

**Q.** And the “Time spent exploring the familiar object” value [2, 17]?
**A.** Its value is 43.83 s.

**Q.** What about the “Time spent exploring the novel object” value [2, 17] of the same compound?
**A.** Its value is 27.21 s.

**Q.** And the “Time spent exploring the familiar object” value [2, 18]?
**A.** The value was 63.40 s.

**Q.** And the “Time spent exploring the novel object” value [2, 18]?
**A.** Its value is 46.80 s.

**Q.** And the “%unfamiliar arm exploration” value ([3]; long-term memory (24 hours), scopolamine 1 mg/kg i.p. alone)?
**A.** Its value is 33.37%.

**Q.** And the “%unfamiliar arm exploration” value ([3]; short-term memory (30 min), scopolamine 1 mg/kg i.p. alone)?
**A.** Its value is 31.09%.

**Q.** For Cc1c(C)c2c(c(C)c1O)CCC(C)(C(=O)O)O2 (stereo not drawn) [Trolox, reference compound], which IC50 (ABTS radical scavenging) is on record?
**A.** Its IC50 is 81.4 ± 4.67 µM.

**Q.** What about the IC50 (DPPH radical scavenging) of the same compound?
**A.** Its IC50 is 24.6 ± 0.39 µM.
